Results as given in patent USRE43932E1, “Crystal modification of a N-phenyl-2-pyrimidineamine derivative, processes for its manufacture and its use” (Novartis AG, priority 1997, dated 2013).

How the values were obtained:
[1] = system: angiogenic effect of growth factors (VEGF, PDGF, bFGF); assay: Subcutaneous agar chamber angiogenesis model with growth factor; format: in vivo, mice (C57 BL/6); conditions: mice, oral dose of 50 mg/kg once daily, chambers removed after 5 days
Protocol: Dosing is started one day before implantation of the chambers. The chambers are removed after 5 days. The angiogenic efficacy is quantified by measuring both the vascularised tissue which has grown around the implant and the blood content of this tissue (external blood). The blood is determined by measuring the haemoglobin.

PDGF receptor = assay: PDGF-stimulated receptor tyrosine kinase activity in PDGF receptor immune complexes of BALB/c 3T3 cells; format: biochemical
Protocol: The inhibition of PDGF-stimulated receptor tyrosine kinase activity in vitro is measured in PDGF receptor immune complexes of BALB/c 3T3 cells, as described by E. Andrejauskas-Buchdunger and U. Regenass in Cancer Research 52, 5353-5358 (1992).

[2] = Flow properties of the crystals; format: physicochemical; conditions: for solid dosage forms
denuded thoracic aorta = assay: Rat thoracic aorta denudation, cell counts; format: in vivo, male Wistar rats; conditions: rats, 50 mg/kg i.p. per day
[3] = system: denuded left common carotid artery; assay: Rat carotid artery denudation, cell counts and BrdU labelling; format: in vivo, male Wistar rats
[4] = system: tracheal allogenic transplants; conditions: 50 mg/kg combined with CsA 1 mg/kg s.c.
From the text: In contrast to patients without OB, those with OB often show an elevated PDGF concentration in bronchoalveolar lavage fluids.

Row | Compound | Angiogenic effect of growth factors (VEGF, PDFG, bFGF) [1] | PDGF-dependent acellular receptor phosphorylation (PDGF receptor) | Flow properties [2] | Number of smooth-muscle cells in aorta-denuded animals (denuded thoracic aorta) | Absolute number of BrdU-labelled cells in the intima, media, and adventitia ([3]; first two labelling periods (0-72 and 72-96 h)) | Number of BrdU-labelled cells in all compartments ([3]; labelling after 93-96 h) | Cell count for smooth-muscle cells in the carotid ([3]; rats, 50 mg/kg i.p. per day, 4 days after denudation) | Cell count in the adventitia and the media ([3]; rats, 50 mg/kg i.p. per day, carotid denudation) | Effect of combination with CsA [4]
1 | Cc1ccc(NC(=O)c2ccc(CN3CCN(C)CC3)cc2)cc1Nc1nccc(-c2cccnc2)n1 [compound of formula I] | inhibits | inhibits |  |  |  |  |  |  | 
2 | CS(=O)(=O)O.Cc1ccc(NC(=O)c2ccc(CN3CCN(C)CC3)cc2)cc1Nc1nccc(-c2cccnc2)n1 [α-crystal form] |  |  | unfavourable |  |  |  |  |  | 
3 | CS(=O)(=O)O.Cc1ccc(NC(=O)c2ccc(CN3CCN(C)CC3)cc2)cc1Nc1nccc(-c2cccnc2)n1 [β-crystal form] |  |  | substantially more favourable than those of the α-crystal form | Decreases | slight decrease | decrease | significant decrease | significant reduction | synergism
